Data as given in US12036312B2, “Non-aqueous topical compositions comprising a halogenated salicylanilide” (priority 2016, dated 2024).
Like-named read-outs stand apart in the source and are kept apart here.

Assays:
S. aureus = experiment: MIC assay according to CLSI criteria, Example 2, S. aureus strains; assay type: cell-based, Staphylococcus aureus; settings: for MIC: Staphylococcus aureus, read-out: MIC
Outline: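 Broth microdilution per CLSI in cation-adjusted Mueller Hinton broth, ~5×10^5 exponential-phase cells per well, aerobic at 37° C for 18 hours; OD600 read at end.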

[1] = test system: methicillin-resistant Staphylococcus aureus (MRSA 01, MRSA 15, MRSA 16); experiment: Resistance mutation frequency evaluation, Example 3; assay type: cell-based

O=C(Nc1ccc([N+](=O)[O-])cc1Cl)c1cc(Cl)ccc1O [Niclosamide, niclosamide]
< 4.10^−9: mutational frequency ([1]; at MIC×1, all tested strains (MRSA 01, MRSA 15, MRSA 16), below the detection limit)
0.125 µg/mL: MIC (S. aureus; MRSA, strain MRSA 70)
27% (55/205): MIC distribution: percentage of Staphylococcus aureus strains (S. aureus; MIC 0.5 μg/ml, 205 strains)
0.5 µg/mL: MIC90 (S. aureus; Staphylococcus aureus strains) | MIC (S. aureus; MRSA, strain MRSA 12) | MIC (S. aureus; MRSA, strain MRSA 26) | MIC (S. aureus; MRSA, strain MRSA 27) | MIC (S. aureus; MRSA, strain MRSA 29) | MIC (S. aureus; MRSA, strain MRSA 73) | MIC (S. aureus; MRSA, strain MRSA 75) | MIC (S. aureus; MRSA, strain MRSA 78) | MIC (S. aureus; MRSA, strain MRSA 80) | MIC (S. aureus; MRSA, strain MRSA 81) | MIC (S. aureus; MRSA, strain MRSA 83) | MIC (S. aureus; MRSA, strain MRSA 90) | MIC (S. aureus; MRSA, strain MRSA 98) | MIC (S. aureus; MRSA, strain MRSA 101) | MIC (S. aureus; MRSA, strain MRSA 104) | MIC (S. aureus; MRSA, strain MRSA 111) | MIC (S. aureus; MSSA, strain MSSA 01)
0.25 µg/mL: MIC50 (S. aureus; Staphylococcus aureus strains) | MIC (S. aureus; MRSA, strain MRSA 01) | MIC (S. aureus; MRSA, strain MRSA 02) | MIC (S. aureus; MRSA, strain MRSA 03) | MIC (S. aureus; MRSA, strain MRSA 04) | MIC (S. aureus; MRSA, strain MRSA 05) | MIC (S. aureus; MRSA, strain MRSA 06) | MIC (S. aureus; MRSA, strain MRSA 08) | MIC (S. aureus; MRSA, strain MRSA 10) | MIC (S. aureus; MRSA, strain MRSA 11) | MIC (S. aureus; MRSA, strain MRSA 13) | MIC (S. aureus; MRSA, strain MRSA 14) | MIC (S. aureus; MRSA, strain MRSA 15) | MIC (S. aureus; MRSA, strain MRSA 16) | MIC (S. aureus; MRSA, strain MRSA 17) | MIC (S. aureus; MRSA, strain MRSA 18) | MIC (S. aureus; MRSA, strain MRSA 19) | MIC (S. aureus; MRSA, strain MRSA 20) | MIC (S. aureus; MRSA, strain MRSA 21) | MIC (S. aureus; MRSA, strain MRSA 22) | MIC (S. aureus; MRSA, strain MRSA 23) | MIC (S. aureus; MRSA, strain MRSA 24) | MIC (S. aureus; MRSA, strain MRSA 25) | MIC (S. aureus; MRSA, strain MRSA 28) | MIC (S. aureus; MRSA, strain MRSA 30) | MIC (S. aureus; MRSA, strain MRSA 31) | MIC (S. aureus; MRSA, strain MRSA 32) | MIC (S. aureus; MRSA, strain MRSA 33) | MIC (S. aureus; MRSA, strain MRSA 34) | MIC (S. aureus; MRSA, strain MRSA 35) | MIC (S. aureus; MRSA, strain MRSA 88) | MIC (S. aureus; MRSA, strain MRSA 91) | MIC (S. aureus; MRSA, strain MRSA 92) | MIC (S. aureus; MRSA, strain MRSA 93) | MIC (S. aureus; MRSA, strain MRSA 94) | MIC (S. aureus; MRSA, strain MRSA 95) | MIC (S. aureus; MRSA, strain MRSA 96) | MIC (S. aureus; MRSA, strain MRSA 97) | MIC (S. aureus; MRSA, strain MRSA 99) | MIC (S. aureus; MRSA, strain MRSA 100) | MIC (S. aureus; MRSA, strain MRSA 102) | MIC (S. aureus; MRSA, strain MRSA 103) | MIC (S. aureus; MRSA, strain MRSA 105) | MIC (S. aureus; MRSA, strain MRSA 106) | MIC (S. aureus; MRSA, strain MRSA 107) | MIC (S. aureus; MRSA, strain MRSA 108) | MIC (S. aureus; MRSA, strain MRSA 109) | MIC (S. aureus; MRSA, strain MRSA 110) | MIC (S. aureus; MRSA, strain MRSA 112) | MIC (S. aureus; MRSA, strain MRSA 113) | MIC (S. aureus; MSSA, strain MSSA 02) | MIC (S. aureus; NEWMAN, strain Newman)

CC(=O)O[C@H]1C[C@@]2(C)[C@@H](C[C@@H](O)[C@H]3[C@@]4(C)CC[C@@H](O)[C@@H](C)[C@@H]4CC[C@@]32C)/C1=C(\CCC=C(C)C)C(=O)O [Fusidic acid, fusidic acid]
0.06 µg/mL: MIC (S. aureus; MRSA, strain MRSA 88)
8 µg/mL: MIC (S. aureus; MRSA, strain MRSA 36) | MIC (S. aureus; MRSA, strain MRSA 38) | MIC (S. aureus; MRSA, strain MRSA 39) | MIC (S. aureus; MRSA, strain MRSA 92) | MIC (S. aureus; MRSA, strain MRSA 95) | MIC (S. aureus; MRSA, strain MRSA 97) | MIC (S. aureus; MRSA, strain MRSA 101) | MIC (S. aureus; MRSA, strain MRSA 103) | MIC (S. aureus; MRSA, strain MRSA 111)
> 16 µg/mL: MIC (S. aureus; MRSA, strain MRSA 14) | MIC (S. aureus; MRSA, strain MRSA 86)
0.125 µg/mL: MIC (S. aureus; MRSA, strain MRSA 01) | MIC (S. aureus; MRSA, strain MRSA 05) | MIC (S. aureus; MRSA, strain MRSA 06) | MIC (S. aureus; MRSA, strain MRSA 08) | MIC (S. aureus; MRSA, strain MRSA 19) | MIC (S. aureus; MRSA, strain MRSA 20) | MIC (S. aureus; MRSA, strain MRSA 21) | MIC (S. aureus; MRSA, strain MRSA 30) | MIC (S. aureus; MRSA, strain MRSA 40) | MIC (S. aureus; MRSA, strain MRSA 87) | MIC (S. aureus; MRSA, strain MRSA 94) | MIC (S. aureus; MRSA, strain MRSA 96) | MIC (S. aureus; MRSA, strain MRSA 99) | MIC (S. aureus; MRSA, strain MRSA 100) | MIC (S. aureus; MRSA, strain MRSA 105) | MIC (S. aureus; MRSA, strain MRSA 106) | MIC (S. aureus; MRSA, strain MRSA 113)
0.5 µg/mL: MIC (S. aureus; MRSA, strain MRSA 02) | MIC (S. aureus; MRSA, strain MRSA 26) | MIC (S. aureus; MRSA, strain MRSA 32) | MIC (S. aureus; MRSA, strain MRSA 33) | MIC (S. aureus; MRSA, strain MRSA 37) | MIC (S. aureus; MRSA, strain MRSA 75) | MIC (S. aureus; MRSA, strain MRSA 79)
3.10^−7: mutational frequency ([1]; at MIC×10)
4 µg/mL: MIC (S. aureus; MRSA, strain MRSA 12) | MIC (S. aureus; MRSA, strain MRSA 85) | MIC (S. aureus; MRSA, strain MRSA 108) | MIC (S. aureus; MSSA, strain MSSA 01) | MIC (S. aureus; MSSA, strain MSSA 02)
0.25 µg/mL: MIC (S. aureus; MRSA, strain MRSA 04) | MIC (S. aureus; MRSA, strain MRSA 07) | MIC (S. aureus; MRSA, strain MRSA 09) | MIC (S. aureus; MRSA, strain MRSA 16) | MIC (S. aureus; MRSA, strain MRSA 18) | MIC (S. aureus; MRSA, strain MRSA 23) | MIC (S. aureus; MRSA, strain MRSA 24) | MIC (S. aureus; MRSA, strain MRSA 27) | MIC (S. aureus; MRSA, strain MRSA 31) | MIC (S. aureus; MRSA, strain MRSA 34) | MIC (S. aureus; MRSA, strain MRSA 42) | MIC (S. aureus; MRSA, strain MRSA 49) | MIC (S. aureus; MRSA, strain MRSA 53) | MIC (S. aureus; MRSA, strain MRSA 64) | MIC (S. aureus; MRSA, strain MRSA 67) | MIC (S. aureus; MRSA, strain MRSA 73) | MIC (S. aureus; MRSA, strain MRSA 74) | MIC (S. aureus; MRSA, strain MRSA 76) | MIC (S. aureus; MRSA, strain MRSA 81) | MIC (S. aureus; MRSA, strain MRSA 91) | MIC (S. aureus; MRSA, strain MRSA 104) | MIC (S. aureus; MRSA, strain MRSA 107) | MIC (S. aureus; MRSA, strain MRSA 109) | MIC (S. aureus; NEWMAN, strain Newman)
≥ 4.10^−5: mutational frequency ([1]; at MIC×1)
16 µg/mL: MIC (S. aureus; MRSA, strain MRSA 03) | MIC (S. aureus; MRSA, strain MRSA 25) | MIC (S. aureus; MRSA, strain MRSA 35) | MIC (S. aureus; MRSA, strain MRSA 72) | MIC (S. aureus; MRSA, strain MRSA 77) | MIC (S. aureus; MRSA, strain MRSA 90)
0.03 µg/mL: MIC (S. aureus; MRSA, strain MRSA 50)
1 µg/mL: MIC (S. aureus; MRSA, strain MRSA 10) | MIC (S. aureus; MRSA, strain MRSA 11)
